From article PMC10788917 (Journal of Medicinal Chemistry, 2023)
Residue numbers refer to the chain shown, from its start.

Assays:
Experiment in all cases: HDAC8 mutant biochemical assay
[1] = molecular target: T1, HDAC8 Cys102Ser/Cys153Ser (Homo sapiens, UniProt Q9BY41, C102S/C153S); details: read-out: IC50 [μM] @ 100 nM HDAC8: A Cys102Ser/Cys153Ser, 1 h preincubation
T1 construct: made in house
T1 sequence (Q9BY41 1-377 C102S/C153S): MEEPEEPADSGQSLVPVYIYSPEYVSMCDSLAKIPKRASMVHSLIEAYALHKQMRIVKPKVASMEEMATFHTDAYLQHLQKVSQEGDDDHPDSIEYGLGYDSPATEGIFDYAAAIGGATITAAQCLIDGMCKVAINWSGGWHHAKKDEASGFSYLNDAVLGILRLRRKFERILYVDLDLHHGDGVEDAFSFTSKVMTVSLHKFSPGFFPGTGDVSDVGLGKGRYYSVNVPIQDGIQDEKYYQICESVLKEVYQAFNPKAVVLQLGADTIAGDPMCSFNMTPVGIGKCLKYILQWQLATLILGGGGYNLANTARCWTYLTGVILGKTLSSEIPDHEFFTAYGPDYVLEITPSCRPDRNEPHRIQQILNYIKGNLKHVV
Description: (§1) HDAC8 mutant variants were generated, produced, and further purified as described previously.[32] Cysteines 28 and 314 were exchanged with serine using the following primer pairs: HD8_C28S_for, […]; HD8_C28S_rev, […]; HD8_C314S_for, […]; HD8_C314S_rev, […].
(§2) The enzyme activity assay was performed in assay buffer [25 mM Tris-HCl (pH 8.0), 50 mM NaCl, and 0.001% (v/v) Pluronic F-68] in black half-area 96-well microplates (Greiner Bio-One). For the initial screening, 10 nM HDAC8 was preincubated with the indicated compounds at 250 μM for 2 h at 30 °C. […] The reaction was initiated by the addition of 20 μM Boc-Lys(TFA)-AMC (Bachem). After substrate conversion at 30 °C for 15 min for HDAC8 and 1 h for HDAC8 mutants and HDAC4, the reaction was stopped by adding 1.67 μM suberoylanilide trifluoromethylketone (SATFMK). The deacetylated substrate was cleaved with 0.42 mg/mL trypsin to release fluorescent 7-amino-4-methylcoumarin (AMC), which was detected with a microplate reader (PHERAstar FS […]) with fluorescence excitation at 360 nm and emission at 460 nm. IC50 values were calculated by generating dose–response curves in GraphPad Prism 6 and fitting those to a four-parameter logistic model.

[2] = molecular target: T2, HDAC8 Cys102Ser/Cys153Ser/Cys131Ser (Homo sapiens, UniProt Q9BY41, C102S/C131S/C153S); details: read-out: IC50 [μM] @ 100 nM HDAC8: D Cys102Ser/Cys153Ser/Cys131Ser, 1 h preincubation
T2 construct: made in house
T2 sequence (Q9BY41 1-377 C102S/C131S/C153S): T1 sequence (Q9BY41 1-377 C102S/C153S) with C131S
Description: as §1, §2

[3] = molecular target: T3, HDAC8 Cys102Ser/Cys153Ser/Cys125Ser (Homo sapiens, UniProt Q9BY41, C102S/C125S/C153S); details: read-out: IC50 [μM] @ 100 nM HDAC8: C Cys102Ser/Cys153Ser/Cys125Ser, 1 h preincubation
T3 construct: made in house
T3 sequence (Q9BY41 1-377 C102S/C125S/C153S): T1 sequence (Q9BY41 1-377 C102S/C153S) with C125S
Description: as §1, §2

[4] = molecular target: T4, HDAC8 Cys102Ser/Cys153Ser/Cys314Ser (Homo sapiens, UniProt Q9BY41, C102S/C153S/C314S); details: read-out: IC50 [μM] @ 100 nM HDAC8: H Cys102Ser/Cys153Ser/Cys314Ser, 1 h preincubation
T4 construct: made in house
T4 sequence (Q9BY41 1-377 C102S/C153S/C314S): T1 sequence (Q9BY41 1-377 C102S/C153S) with C314S
Description: as §1, §2

Row | SMILES | IC50 [1] [µM] | IC50 [2] [µM] | IC50 [3] [µM] | IC50 [4] [µM]
1 | C[n+]1ccccc1I [A3+] | 59 ± 4 | 42 ± 4 | 65 ± 6 | 92 ± 10
2 | C[n+]1ccc(I)cc1 [C3+] | 68 ± 5 | 36 ± 8 | 81 ± 4 | 14
3 | C#Cc1cc[n+](C)cc1 [C6+] | 14 ± 1 | 3.3 ± 0.3 | 15 ± 1 | 100 ± 14
4 | C[n+]1cccnc1Cl [D1+] | 60 ± 9 | 49 ± 6 | 82 ± 4 | > 130
5 | C[n+]1cccnc1Br [D2+] | 23 ± 3 | 18 ± 4 | 52 ± 7 | > 130
6 | C[n+]1cccnc1I [D3+] | 14 ± 1 | 8 ± 1 | 14 ± 1 | 20 ± 1
7 | C#Cc1nccc[n+]1C [D6+] | > 130 | 93 ± 13 | > 130 | 
8 | C[n+]1cncc(Br)c1 [F2+] | 29 ± 1 | 25 ± 2 | 56 ± 5 | 74 ± 11
9 | C[n+]1cncc(I)c1 [F3+] | 16 ± 3 | 15 |  | 19 ± 2
10 | C#Cc1c[n+](C)ccn1 [G6+] | 97 ± 34 | 55 ± 12 | 126 ± 17 | > 130
